Results on eight compounds are retold here after US11345711B2, “8,9-dihydroimidazo[1,2-a]pyrimido[5,4-e]pyrimidin-5(6H)-ones” (IMPACT THERAPEUTICS (SHANGHAI), INC, priority 2016, dated 2022).

For one assay, the system named is LoVo cells. Kind of assay: MTT based cell viability assay on LoVo cells. The following applies: Homo sapiens, LoVo, 72 h, 3 d, read-out: IC50, growth inhibition of LoVo cells. The essentials:
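Inhibition of LoVo proliferation was derived as IC50 from a sigmoidal dose-response fit of cell survival. Readout was MTT (0.5 mg/mL, 4 h) with absorbance at 552/630/690 nm, after 3-day treatment at 37 °C. Eight-point series from 10 μM to 0.01 μM, DMSO control, 1% DMSO final.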

The target of the next assay is Wee1 (h) (Homo sapiens, UniProt P30291). The experiment in a line: Wee1 kinase (h) detection method, [γ-33P]-ATP filter assay. Format: biochemical.
In a further assay the test system is NCI-H1299 cells. The experiment in a line: MTT based cell viability assay on NCI-H1299 cells. The note with it: read-out: IC50, growth inhibition of NCI-H1299 cells. The essentials: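 NCI-H1299 cells (1000/well, settled overnight) were exposed for 3 d at 37 °C, 5% CO2, to an eight-point series of 10 μM to 0.01 μM plus DMSO blank, as prepared in DMSO (final DMSO 1‰). MTT (0.5 mg/mL, 4 h) was read at 552/630/690 nm. IC50 came from sigmoidal dose-response fits of survival.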

The mark [1] stands for this setting: Homo sapiens, NCI-H1299, NCI-H1299 cells.

Read-outs that look alike come from different tables or passages of the source.

Sequence of Wee1 (h) (P30291 whole entry): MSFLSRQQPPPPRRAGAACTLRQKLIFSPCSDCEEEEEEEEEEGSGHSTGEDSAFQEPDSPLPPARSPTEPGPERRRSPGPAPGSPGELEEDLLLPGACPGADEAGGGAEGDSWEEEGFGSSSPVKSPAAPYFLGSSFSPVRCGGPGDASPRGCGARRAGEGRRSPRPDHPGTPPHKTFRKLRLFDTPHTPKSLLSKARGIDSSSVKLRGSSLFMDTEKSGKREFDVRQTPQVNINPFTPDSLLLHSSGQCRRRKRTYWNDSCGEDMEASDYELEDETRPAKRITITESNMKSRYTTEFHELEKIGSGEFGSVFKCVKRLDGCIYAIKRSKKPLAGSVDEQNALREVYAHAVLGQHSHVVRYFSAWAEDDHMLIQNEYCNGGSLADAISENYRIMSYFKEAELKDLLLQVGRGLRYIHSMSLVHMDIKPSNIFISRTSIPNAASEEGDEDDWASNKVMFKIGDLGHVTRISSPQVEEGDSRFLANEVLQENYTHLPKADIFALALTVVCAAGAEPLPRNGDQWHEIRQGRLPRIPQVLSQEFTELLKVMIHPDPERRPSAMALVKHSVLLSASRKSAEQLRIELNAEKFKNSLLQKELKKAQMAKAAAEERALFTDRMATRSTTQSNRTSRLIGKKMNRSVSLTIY

Usually IC50 stands for the concentration that inhibits the measured activity by half. As for `CN1CCN(c2ccc(Nc3ncc4c(n3)N3CC(C)(C)N=C3N(c3c(F)cccc3Cl)C4=O)cc2)CC1` [Example 27, 6-(2-Chloro-6-fluorophenyl)-8,8-dimethyl-2-((4-(4-methylpiperazin-1-yl)phenyl)amino)-8,9-dihydroimidazo[1,2-a]pyrimido[5,4-e]pyrimidin-5(6H)-one], the IC50 in the assay on LoVo cells was more than 100000 nM; with NCI-H1299 cells (Homo sapiens, NCI-H1299 cells) it was more than 10000 nM. In addition, the “Inh. (%) of Wee1 kinase enzyme activity” value on Wee1 (h) (C 1 μm compound) is given as 17%.
Consider `Cc1cc(Nc2ncc3c(n2)N2CCN=C2N(c2c(C)cccc2F)C3=O)cc(C)c1N1CCN(C)CC1` [Example 169, 6-(2-Fluoro-6-methylphenyl)-2-((3,5-dimethyl-4-(4-methylpiperazin-1-yl)phenyl)amino)-8,9-dihydroimidazo[1,2-a]pyrimido[5,4-e]pyrimidin-5(6H)-one], for which the figures for the IC50 in the assay on LoVo cells and with NCI-H1299 cells (setting [1]) were 165 nM and 274 nM, respectively. Also, the “Inh. (%) of Wee1 kinase enzyme activity” value on Wee1 (h) (C 0.01 μm compound) came to 16%; on Wee1 (h) (C 0.1 μm compound) it was 73%; on Wee1 (h) (C 1 μm compound), 93%.
As for `C[C@@H]1CN(c2ccc(Nc3ncc4c(n3)N3CCN=C3N(c3c(Cl)cccc3Cl)C4=O)c(F)c2)C[C@H](C)N1C` [Example 66, 6-(2,6-Dichlorophenyl)-2-((2-fluoro-4-((3S,5R)-3,4,5-trimethylpiperazin-1-yl)phenyl)amino)-8,9-dihydroimidazo[1,2-a]pyrimido[5,4-e]pyrimidin-5(6H)-one], the IC50 with LoVo cells was more than 100000 nM; with NCI-H1299 cells (Homo sapiens, NCI-H1299 cells), more than 10000 nM. Further, the “Inh. (%) of Wee1 kinase enzyme activity” value on Wee1 (h) (C 1 μm compound) worked out at 0%.
Take `CN1CCN(c2c(F)cc(Nc3ncc4c(n3)N3CCN=C3N(c3c(Cl)cccc3Cl)C4=O)cc2Br)CC1` [Example 154, 6-(2,6-Dichlorophenyl)-2-((3-bromo-5-fluoro-4-(4-methylpiperazin-1-yl)phenyl)amino)-8,9-dihydroimidazo[1,2-a]pyrimido[5,4-e]pyrimidin-5(6H)-one]: the IC50 is 63.3 nM in the assay with LoVo cells and 174 nM in the assay on NCI-H1299 cells (setting [1]). The entries for the “Inh. (%) of Wee1 kinase enzyme activity” value on Wee1 (h) (C 0.01 μm compound), on Wee1 (h) (C 0.1 μm compound) and at Wee1 (h) (C 1 μm compound) were 25%, 72% and 96%, respectively.
On to `CN1CCc2c(Cl)cc(Nc3ncc4c(n3)N3CCN=C3N(c3c(Cl)cccc3Cl)C4=O)cc2C1` [Example 130, 6-(2,6-Dichlorophenyl)-2-((5-chloro-2-methyl-1,2,3,4-tetrahydroisoquinolin-7-yl)amino)-8,9-dihydroimidazo[1,2-a]pyrimido[5,4-e]pyrimidin-5(6H)-one], for which the IC50 is 624 nM with LoVo cells and 243 nM in the assay on NCI-H1299 cells (Homo sapiens, NCI-H1299 cells). Besides, the “Inh. (%) of Wee1 kinase enzyme activity” value at Wee1 (h) (C 1 μm compound) is recorded as 93%.
The matching figures for `CN1CCN(c2ccc(Nc3ncc4c(n3)N3CCN=C3N(c3cccc(F)c3Cl)C4=O)cc2)CC1` [Example 89, 6-(2-Chloro-3-fluorophenyl)-2-((4-(4-methylpiperazin-1-yl)phenyl)amino)-8,9-dihydroimidazo[1,2-a]pyrimido[5,4-e]pyrimidin-5(6H)-one]: 220 nM, 957 nM and 89%.
`COc1cc(Nc2ncc3c(n2)N2CCN=C2N(c2c(Cl)cccc2Cl)C3=O)ccc1N1CCNCC1` [Example 178, 6-(2,6-Dichlorophenyl)-2-((3-methoxy-4-(piperazin-1-yl)phenyl)amino)-8,9-dihydroimidazo[1,2-a]pyrimido[5,4-e]pyrimidin-5(6H)-one]: the IC50 in the assay on LoVo cells turned out to be 281 nM; in the assay with NCI-H1299 cells (Homo sapiens, NCI-H1299 cells), 360 nM. Moreover, the “Inh. (%) of Wee1 kinase enzyme activity” value at Wee1 (h) (C 1 μm compound) was 94%.
As to `CN1CCN(c2ccc(Nc3ncc4c(n3)N3CCN=C3N(c3c(Cl)cccc3Cl)C4=O)cc2Cl)CC1` [Example 71, 2-((3-chloro-4-(4-methylpiperazin-1-yl)phenyl)amino)-6-(2,6-dichlorophenyl)-8,9-dihydroimidazo[1,2-a]pyrimido[5,4-e]pyrimidin-5(6H)-one], the IC50 amounted to 44.3 nM in the assay on LoVo cells and 603 nM in the assay on NCI-H1299 cells (NCI-H1299 cells). For the same compound, the “Inh. (%) of Wee1 kinase enzyme activity” value at Wee1 (h) (C 0.01 μm compound) was found to be 36%; at Wee1 (h) (C 0.1 μm compound), 74%; at Wee1 (h) (C 1 μm compound), 98%.
